Measured values: patent publication US8192962B2, “Processes for detecting toxic substances” (Daikin Industries, Ltd., priority 2001, dated 2012)

Tested on: Stress protein genes
Assay: DNA chip mRNA expression in yeast, stress protein genes (Table 6)
Assay type: cell-based, Saccharomyces cerevisiae S288C
Method in brief: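 S. cerevisiae S288C grown at 25° C in YPD were exposed in log phase for two hours to one toxic chemical at a growth-inhibiting, non-lethal concentration; untreated cells served as control. Poly(A) mRNA was reverse-transcribed with Cy3/Cy5-dUTP and hybridized to a whole-genome yeast DNA chip at 65° C for over 12 hours; values are fluorescence ratios versus untreated.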

Cl[C@H]1[C@H](Cl)[C@@H](Cl)[C@@H](Cl)[C@H](Cl)[C@H]1Cl [(7), γ-hexachlorocyclohexane]
The level of expressed mRNA in the presence of chemical substance/The level of expressed mRNA in the absence of chemical substance (yeast gene YAL005C): 1.2 | The level of expressed mRNA in the presence of chemical substance/The level of expressed mRNA in the absence of chemical substance (yeast gene YAL015C): 1.2 | The level of expressed mRNA in the presence of chemical substance/The level of expressed mRNA in the absence of chemical substance (yeast gene YBL075C): 1.3 | The level of expressed mRNA in the presence of chemical substance/The level of expressed mRNA in the absence of chemical substance (yeast gene YBL093C): 1.3 | The level of expressed mRNA in the presence of chemical substance/The level of expressed mRNA in the absence of chemical substance (yeast gene YBR044C): 1.5 | The level of expressed mRNA in the presence of chemical substance/The level of expressed mRNA in the absence of chemical substance (yeast gene YBR054W): 0.6 | The level of expressed mRNA in the presence of chemical substance/The level of expressed mRNA in the absence of chemical substance (yeast gene YBR067C): 1.1 | The level of expressed mRNA in the presence of chemical substance/The level of expressed mRNA in the absence of chemical substance (yeast gene YBR072W): 6.6 | The level of expressed mRNA in the presence of chemical substance/The level of expressed mRNA in the absence of chemical substance (yeast gene YBR126C): 2.3 | The level of expressed mRNA in the presence of chemical substance/The level of expressed mRNA in the absence of chemical substance (yeast gene YBR169C): 2.5 | The level of expressed mRNA in the presence of chemical substance/The level of expressed mRNA in the absence of chemical substance (yeast gene YCL035C): 2.7 | The level of expressed mRNA in the presence of chemical substance/The level of expressed mRNA in the absence of chemical substance (yeast gene YCR021C): 0.9 | The level of expressed mRNA in the presence of chemical substance/The level of expressed mRNA in the absence of chemical substance (yeast gene YCR060W): 2.4 | The level of expressed mRNA in the presence of chemical substance/The level of expressed mRNA in the absence of chemical substance (yeast gene YCR083W): 1.8 | The level of expressed mRNA in the presence of chemical substance/The level of expressed mRNA in the absence of chemical substance (yeast gene YDL022W): 1.5 | The level of expressed mRNA in the presence of chemical substance/The level of expressed mRNA in the absence of chemical substance (yeast gene YDL025C): 1.0 | The level of expressed mRNA in the presence of chemical substance/The level of expressed mRNA in the absence of chemical substance (yeast gene YDR033W): 0.8 | The level of expressed mRNA in the presence of chemical substance/The level of expressed mRNA in the absence of chemical substance (yeast gene YDR077W): 0.7 | The level of expressed mRNA in the presence of chemical substance/The level of expressed mRNA in the absence of chemical substance (yeast gene YDR098C): 1.5 | The level of expressed mRNA in the presence of chemical substance/The level of expressed mRNA in the absence of chemical substance (yeast gene YDR155C): 1.2 | The level of expressed mRNA in the presence of chemical substance/The level of expressed mRNA in the absence of chemical substance (yeast gene YDR258C): 3.9 | The level of expressed mRNA in the presence of chemical substance/The level of expressed mRNA in the absence of chemical substance (yeast gene YDR293C): 0.9 | The level of expressed mRNA in the presence of chemical substance/The level of expressed mRNA in the absence of chemical substance (yeast gene YDR436W): 1.2 | The level of expressed mRNA in the presence of chemical substance/The level of expressed mRNA in the absence of chemical substance (yeast gene YDR513W): 1.6 | The level of expressed mRNA in the presence of chemical substance/The level of expressed mRNA in the absence of chemical substance (yeast gene YDR519W): 1.9 | The level of expressed mRNA in the presence of chemical substance/The level of expressed mRNA in the absence of chemical substance (yeast gene YEL030W): 0.9 | The level of expressed mRNA in the presence of chemical substance/The level of expressed mRNA in the absence of chemical substance (yeast gene YEL039C): 0.6 | The level of expressed mRNA in the presence of chemical substance/The level of expressed mRNA in the absence of chemical substance (yeast gene YER042W): 1.1 | The level of expressed mRNA in the presence of chemical substance/The level of expressed mRNA in the absence of chemical substance (yeast gene YER057C): 1.4 | The level of expressed mRNA in the presence of chemical substance/The level of expressed mRNA in the absence of chemical substance (yeast gene YER103W): 1.0 | The level of expressed mRNA in the presence of chemical substance/The level of expressed mRNA in the absence of chemical substance (yeast gene YER125W): 0.8 | The level of expressed mRNA in the presence of chemical substance/The level of expressed mRNA in the absence of chemical substance (yeast gene YFL014W): 5.5 | The level of expressed mRNA in the presence of chemical substance/The level of expressed mRNA in the absence of chemical substance (yeast gene YFL016C): 1.4 | The level of expressed mRNA in the presence of chemical substance/The level of expressed mRNA in the absence of chemical substance (yeast gene YFL020C): 1.4 | The level of expressed mRNA in the presence of chemical substance/The level of expressed mRNA in the absence of chemical substance (yeast gene YFR052W): 2.2 | The level of expressed mRNA in the presence of chemical substance/The level of expressed mRNA in the absence of chemical substance (yeast gene YGL073W): 1.3 | The level of expressed mRNA in the presence of chemical substance/The level of expressed mRNA in the absence of chemical substance (yeast gene YGL115W): 1.4 | The level of expressed mRNA in the presence of chemical substance/The level of expressed mRNA in the absence of chemical substance (yeast gene YGL181W): 1.3 | The level of expressed mRNA in the presence of chemical substance/The level of expressed mRNA in the absence of chemical substance (yeast gene YGR088W): 0.8 | The level of expressed mRNA in the presence of chemical substance/The level of expressed mRNA in the absence of chemical substance (yeast gene YHL028W): 2.1 | The level of expressed mRNA in the presence of chemical substance/The level of expressed mRNA in the absence of chemical substance (yeast gene YHL046C): 1.3 | The level of expressed mRNA in the presence of chemical substance/The level of expressed mRNA in the absence of chemical substance (yeast gene YHR030C): 1.8 | The level of expressed mRNA in the presence of chemical substance/The level of expressed mRNA in the absence of chemical substance (yeast gene YHR057C): 1.3 | The level of expressed mRNA in the presence of chemical substance/The level of expressed mRNA in the absence of chemical substance (yeast gene YHR104W): 1.5 | The level of expressed mRNA in the presence of chemical substance/The level of expressed mRNA in the absence of chemical substance (yeast gene YIL011W): 0.6
